In patent US12268739B2, “Use of toll-like receptor 2 (TLR-2) agonist for modulating human immune response” (Children's Medical Center Corporation, priority 2018, dated 2025):

Target: T1, human TLR2 (Homo sapiens, UniProt O60603)
T1 construct: expressed in transfected cells; host or cells: HEK-Blue (human embryonic kidney) cells with an NF-kB-inducible SEAP reporter
Test: HEK293 assay for human TLR2 selectivity (NF-κB/SEAP)
Type: cell-based
Conditions: 18-24 hours stimulation, titratable
Protocol: HEK293 assay for human TLR2 and TLR8 selectivity: Human embryonic kidney (HEK) 293 cells expressing human TLR2 or TLR8 with an NF-κB-responsive secreted embryonic alkaline phosphatase (SEAP) reporter gene were obtained from Invivogen (San Diego, CA). Cells were maintained in RPMI or DMEM with 10% heat inactivated-FBS and selection antibiotics per the manufacturer's instructions. Cells were plated at 5×10^5 cells/96-well and stimulated with indicated agonist(s) for 24 hours. Supernatants were harvested and analyzed for NF-κB/SEAP activation using the QuantiBlue kit (Invivogen). Values are expressed as fold change in OD650 over vehicle-only treated samples.

T1 sequence (O60603 21-784): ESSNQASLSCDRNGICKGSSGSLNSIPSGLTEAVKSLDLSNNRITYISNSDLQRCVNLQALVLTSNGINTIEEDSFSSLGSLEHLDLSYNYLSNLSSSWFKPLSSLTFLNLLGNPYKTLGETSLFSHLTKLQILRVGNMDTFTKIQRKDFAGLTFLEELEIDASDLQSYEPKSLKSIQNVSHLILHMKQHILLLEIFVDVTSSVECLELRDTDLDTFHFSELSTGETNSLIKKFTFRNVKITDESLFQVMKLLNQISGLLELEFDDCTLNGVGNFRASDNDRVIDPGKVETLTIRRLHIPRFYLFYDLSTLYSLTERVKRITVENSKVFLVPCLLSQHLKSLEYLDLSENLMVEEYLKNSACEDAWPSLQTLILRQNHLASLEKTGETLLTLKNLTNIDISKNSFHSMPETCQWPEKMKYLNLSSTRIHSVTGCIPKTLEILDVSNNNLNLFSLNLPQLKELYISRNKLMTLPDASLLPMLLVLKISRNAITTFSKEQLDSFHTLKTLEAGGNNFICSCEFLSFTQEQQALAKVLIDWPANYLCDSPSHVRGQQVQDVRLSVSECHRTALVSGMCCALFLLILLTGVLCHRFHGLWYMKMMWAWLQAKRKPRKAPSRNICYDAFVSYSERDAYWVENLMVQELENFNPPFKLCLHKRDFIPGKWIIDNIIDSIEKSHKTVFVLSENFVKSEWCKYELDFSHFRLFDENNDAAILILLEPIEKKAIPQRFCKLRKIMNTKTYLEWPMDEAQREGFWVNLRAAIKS

For `CNC(=O)c1c(NC(=O)c2ccc(S(=O)(=O)N(C)C)cc2)sc2c1CCC2` [Compound 80], the “TLR2 activation in HEK TLR2 cells (SEAP)” value was “induced TLR2 specific activation”.
